Key:
RIPK1 = target: T1, RIPK1 (Homo sapiens, UniProt Q13546); experiment: KinomeScan; assay type: binding; conditions: read-out: % control
T1 construct: purchased DiscoveRx KINOMEscan

p38-delta = target: T2, p38-delta (Homo sapiens, UniProt O15264); experiment: KinomeScan; assay type: binding; conditions: read-out: % control
T2 construct: purchased DiscoveRx KINOMEscan

468 kinases/mutants = experiment: KinomeScan selectivity profile (panel); assay type: binding; conditions: 1μM
Source text: (§1) In order to better understand CHMFL-EGFR-26's selectivity, we then tested it in DiscoveRx's KinomeScan™ assay. […] Given the fact that KinomeScan™ is a binding assay and sometimes cannot truly reflect the compound inhibitory activity, we then used Invitrogen SelectScreen® assay to test these potential off-targets (Supplementary Table 2). […] This was not surprising because EGFR, JAK3, HER2, HER4 and TEC family kinases (BTK, BLK and BMX) all share a similar cysteine residue at the identical position analogous to Cys 797 in EGFR in the hinge binding area.

ERK5 = target: T3, ERK5 (Homo sapiens, UniProt Q13164); experiment: KinomeScan; assay type: binding; conditions: read-out: % control
T3 construct: purchased DiscoveRx KINOMEscan

GSK3A = target: T4, GSK3A (Homo sapiens, UniProt P49840); experiment: KinomeScan; assay type: binding; conditions: read-out: % control
T4 construct: purchased DiscoveRx KINOMEscan

SLK = target: T5, SLK (Homo sapiens, UniProt Q9H2G2); experiment: KinomeScan; assay type: binding; conditions: read-out: % control
T5 construct: purchased DiscoveRx KINOMEscan

PRKCE = target: T6, PRKCE (Homo sapiens, UniProt Q02156); experiment: KinomeScan; assay type: binding; conditions: read-out: % control
T6 construct: purchased DiscoveRx KINOMEscan
T6 sequence (Q02156 whole entry): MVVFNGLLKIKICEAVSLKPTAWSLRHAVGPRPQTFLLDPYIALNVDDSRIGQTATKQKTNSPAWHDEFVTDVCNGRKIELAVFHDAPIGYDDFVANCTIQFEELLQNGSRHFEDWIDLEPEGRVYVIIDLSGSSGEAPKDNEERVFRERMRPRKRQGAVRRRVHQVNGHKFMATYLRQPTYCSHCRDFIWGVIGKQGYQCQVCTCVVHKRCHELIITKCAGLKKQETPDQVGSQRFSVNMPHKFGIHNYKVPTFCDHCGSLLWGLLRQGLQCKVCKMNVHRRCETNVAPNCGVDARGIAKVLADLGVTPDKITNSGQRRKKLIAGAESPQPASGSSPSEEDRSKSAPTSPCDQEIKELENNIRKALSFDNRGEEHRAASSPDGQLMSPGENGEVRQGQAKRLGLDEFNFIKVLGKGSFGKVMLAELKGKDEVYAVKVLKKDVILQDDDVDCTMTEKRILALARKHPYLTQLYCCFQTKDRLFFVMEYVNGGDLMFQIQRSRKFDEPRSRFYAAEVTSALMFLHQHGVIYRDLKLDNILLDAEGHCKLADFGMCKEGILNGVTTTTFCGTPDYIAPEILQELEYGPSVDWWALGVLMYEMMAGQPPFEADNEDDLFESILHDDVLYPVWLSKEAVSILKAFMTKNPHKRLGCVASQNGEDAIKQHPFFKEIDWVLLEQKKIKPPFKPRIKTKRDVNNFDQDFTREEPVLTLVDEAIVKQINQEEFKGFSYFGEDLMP

LATS1 = target: T7, LATS1 (Homo sapiens, UniProt O95835); experiment: KinomeScan; assay type: binding; conditions: read-out: % control
T7 construct: purchased DiscoveRx KINOMEscan
T7 sequence (O95835 whole entry): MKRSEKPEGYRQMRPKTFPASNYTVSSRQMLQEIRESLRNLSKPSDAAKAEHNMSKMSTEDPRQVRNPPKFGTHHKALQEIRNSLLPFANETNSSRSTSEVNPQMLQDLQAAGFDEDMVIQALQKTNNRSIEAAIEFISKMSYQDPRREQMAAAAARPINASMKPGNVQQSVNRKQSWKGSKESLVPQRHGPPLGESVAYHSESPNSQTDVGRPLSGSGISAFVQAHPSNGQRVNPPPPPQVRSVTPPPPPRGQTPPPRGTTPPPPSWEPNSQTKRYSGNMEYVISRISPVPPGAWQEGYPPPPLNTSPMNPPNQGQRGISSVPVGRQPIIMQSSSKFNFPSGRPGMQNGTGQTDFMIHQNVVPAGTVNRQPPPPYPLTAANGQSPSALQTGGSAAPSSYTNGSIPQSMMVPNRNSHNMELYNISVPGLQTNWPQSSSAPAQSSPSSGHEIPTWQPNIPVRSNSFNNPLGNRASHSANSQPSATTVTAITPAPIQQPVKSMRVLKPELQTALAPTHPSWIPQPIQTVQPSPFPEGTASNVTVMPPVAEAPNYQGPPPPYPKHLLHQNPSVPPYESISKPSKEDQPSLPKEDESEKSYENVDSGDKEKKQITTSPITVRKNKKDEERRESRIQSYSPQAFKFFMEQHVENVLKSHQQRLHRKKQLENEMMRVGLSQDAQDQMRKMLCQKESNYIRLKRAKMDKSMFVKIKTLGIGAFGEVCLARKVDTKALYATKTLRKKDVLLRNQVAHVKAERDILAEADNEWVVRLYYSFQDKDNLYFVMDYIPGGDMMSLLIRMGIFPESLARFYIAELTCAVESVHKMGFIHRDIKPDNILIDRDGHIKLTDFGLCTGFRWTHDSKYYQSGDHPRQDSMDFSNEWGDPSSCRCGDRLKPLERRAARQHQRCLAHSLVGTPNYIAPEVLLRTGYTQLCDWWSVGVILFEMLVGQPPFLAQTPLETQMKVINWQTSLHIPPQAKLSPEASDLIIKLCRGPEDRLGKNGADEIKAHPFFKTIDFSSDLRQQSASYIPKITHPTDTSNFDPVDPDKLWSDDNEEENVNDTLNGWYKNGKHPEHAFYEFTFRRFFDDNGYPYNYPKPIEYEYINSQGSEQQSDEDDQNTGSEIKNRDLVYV

[1] = target: T8, ABL1(H396P)-nonphosphorylated (Homo sapiens, UniProt P00519, H396P); experiment: KinomeScan; assay type: binding; conditions: read-out: % control
T8 construct: purchased DiscoveRx KINOMEscan

FLT3(ITD) = experiment: KinomeScan; assay type: binding; conditions: 1μM
CDC2L5 = target: T9, CDC2L5 (Homo sapiens, UniProt Q14004); experiment: KinomeScan; assay type: binding; conditions: read-out: % control
T9 construct: purchased DiscoveRx KINOMEscan

ACVR2A = target: T10, ACVR2A (Homo sapiens, UniProt P27037); experiment: KinomeScan; assay type: binding; conditions: read-out: % control
T10 construct: purchased DiscoveRx KINOMEscan
T10 sequence (P27037 20-513): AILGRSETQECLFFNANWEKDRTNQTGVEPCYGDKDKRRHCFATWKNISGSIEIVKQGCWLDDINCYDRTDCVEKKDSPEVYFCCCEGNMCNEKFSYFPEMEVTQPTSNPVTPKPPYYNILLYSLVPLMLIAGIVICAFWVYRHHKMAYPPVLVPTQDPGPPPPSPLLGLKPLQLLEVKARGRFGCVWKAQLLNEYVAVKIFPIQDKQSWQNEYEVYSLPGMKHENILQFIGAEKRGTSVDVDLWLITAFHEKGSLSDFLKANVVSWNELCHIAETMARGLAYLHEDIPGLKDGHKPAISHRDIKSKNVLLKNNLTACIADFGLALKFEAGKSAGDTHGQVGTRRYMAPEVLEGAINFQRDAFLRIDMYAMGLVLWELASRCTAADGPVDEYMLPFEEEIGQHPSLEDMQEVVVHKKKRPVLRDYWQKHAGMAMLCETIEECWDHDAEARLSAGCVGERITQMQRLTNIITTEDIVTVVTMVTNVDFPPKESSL

TXK = target: T11, TXK (Homo sapiens, UniProt P42681); experiment: KinomeScan; assay type: binding; conditions: read-out: % control
T11 construct: purchased DiscoveRx KINOMEscan
T11 sequence (P42681 whole entry): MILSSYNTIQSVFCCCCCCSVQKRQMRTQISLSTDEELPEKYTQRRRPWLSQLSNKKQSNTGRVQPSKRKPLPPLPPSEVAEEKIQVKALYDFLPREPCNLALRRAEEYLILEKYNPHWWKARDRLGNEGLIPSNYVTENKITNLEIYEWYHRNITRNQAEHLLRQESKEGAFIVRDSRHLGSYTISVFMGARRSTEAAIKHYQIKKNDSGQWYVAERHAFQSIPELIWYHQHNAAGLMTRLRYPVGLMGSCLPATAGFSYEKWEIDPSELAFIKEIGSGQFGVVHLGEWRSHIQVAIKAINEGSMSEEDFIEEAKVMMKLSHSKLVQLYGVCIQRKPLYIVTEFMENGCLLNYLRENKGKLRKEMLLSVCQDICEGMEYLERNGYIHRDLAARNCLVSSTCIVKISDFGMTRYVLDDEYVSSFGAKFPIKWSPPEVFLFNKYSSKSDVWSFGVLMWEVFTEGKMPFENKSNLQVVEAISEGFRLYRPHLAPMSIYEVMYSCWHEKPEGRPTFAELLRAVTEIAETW

FLT3(D835Y) = target: T12, FLT3(D835Y) (Homo sapiens, UniProt P36888, D835Y); experiment: KinomeScan; assay type: binding; conditions: read-out: % control
T12 construct: purchased DiscoveRx KINOMEscan

CLK3 = target: T13, CLK3 (Homo sapiens, UniProt P49761); experiment: KinomeScan; assay type: binding; conditions: read-out: % control
T13 construct: purchased DiscoveRx KINOMEscan

CAMK1 = target: T14, CAMK1 (Homo sapiens, UniProt Q14012); experiment: KinomeScan; assay type: binding; conditions: read-out: % control
T14 construct: purchased DiscoveRx KINOMEscan

CSNK1G2 = target: T15, CSNK1G2 (Homo sapiens, UniProt P78368); experiment: KinomeScan; assay type: binding; conditions: read-out: % control
T15 construct: purchased DiscoveRx KINOMEscan

IKK-beta = target: T16, IKK-beta (Homo sapiens, UniProt O14920); experiment: KinomeScan; assay type: binding; conditions: read-out: % control
T16 construct: purchased DiscoveRx KINOMEscan
T16 sequence (O14920 whole entry): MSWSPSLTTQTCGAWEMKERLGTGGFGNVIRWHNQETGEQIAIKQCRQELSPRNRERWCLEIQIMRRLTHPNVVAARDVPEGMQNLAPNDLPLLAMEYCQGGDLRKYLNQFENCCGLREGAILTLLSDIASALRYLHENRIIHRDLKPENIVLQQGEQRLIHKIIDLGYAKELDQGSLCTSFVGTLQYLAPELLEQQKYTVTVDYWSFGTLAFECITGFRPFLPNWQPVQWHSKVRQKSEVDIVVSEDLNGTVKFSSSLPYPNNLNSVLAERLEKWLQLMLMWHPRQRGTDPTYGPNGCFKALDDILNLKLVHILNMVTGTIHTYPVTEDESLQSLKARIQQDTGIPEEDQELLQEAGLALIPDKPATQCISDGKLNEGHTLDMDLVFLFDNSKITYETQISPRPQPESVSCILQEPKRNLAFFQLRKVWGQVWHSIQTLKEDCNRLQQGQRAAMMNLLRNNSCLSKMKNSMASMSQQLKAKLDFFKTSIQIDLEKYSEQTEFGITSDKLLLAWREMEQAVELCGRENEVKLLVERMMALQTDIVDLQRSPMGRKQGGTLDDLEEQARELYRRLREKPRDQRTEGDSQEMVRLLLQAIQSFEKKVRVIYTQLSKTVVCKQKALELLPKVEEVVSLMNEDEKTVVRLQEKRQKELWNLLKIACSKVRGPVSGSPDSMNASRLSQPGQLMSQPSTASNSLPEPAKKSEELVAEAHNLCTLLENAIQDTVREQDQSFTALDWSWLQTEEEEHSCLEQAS

NEK2 = target: T17, NEK2 (Homo sapiens, UniProt P51955); experiment: KinomeScan; assay type: binding; conditions: read-out: % control
T17 construct: purchased DiscoveRx KINOMEscan
T17 sequence (P51955 whole entry): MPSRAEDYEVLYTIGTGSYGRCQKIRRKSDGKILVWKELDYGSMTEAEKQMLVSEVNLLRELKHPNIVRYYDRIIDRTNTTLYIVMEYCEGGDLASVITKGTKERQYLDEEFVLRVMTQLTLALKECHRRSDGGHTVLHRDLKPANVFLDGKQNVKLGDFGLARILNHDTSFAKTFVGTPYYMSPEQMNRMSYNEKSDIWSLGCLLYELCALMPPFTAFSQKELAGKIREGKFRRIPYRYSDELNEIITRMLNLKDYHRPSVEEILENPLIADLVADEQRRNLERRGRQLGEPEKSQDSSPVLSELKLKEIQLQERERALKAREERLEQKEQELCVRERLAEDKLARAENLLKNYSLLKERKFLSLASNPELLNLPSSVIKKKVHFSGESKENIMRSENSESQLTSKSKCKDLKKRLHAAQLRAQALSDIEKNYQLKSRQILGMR

CDKL1 = target: T18, CDKL1 (Homo sapiens, UniProt Q00532); experiment: KinomeScan; assay type: binding; conditions: read-out: % control
T18 construct: purchased DiscoveRx KINOMEscan

TNIK = target: T19, TNIK (Homo sapiens, UniProt Q9UKE5); experiment: KinomeScan; assay type: binding; conditions: read-out: % control
T19 construct: purchased DiscoveRx KINOMEscan

RET(M918T) = target: T20, RET(M918T) (Homo sapiens, UniProt P07949, M918T); experiment: KinomeScan; assay type: binding; conditions: read-out: % control
T20 construct: purchased DiscoveRx KINOMEscan

DCAMKL2 = target: T21, DCAMKL2 (Homo sapiens, UniProt Q8N568); experiment: KinomeScan; assay type: binding; conditions: read-out: % control
T21 construct: purchased DiscoveRx KINOMEscan

[2] = target: T22, RSK2(Kin.Dom.1-N-terminal) (Homo sapiens, UniProt P51812); experiment: KinomeScan; assay type: binding; conditions: read-out: % control
T22 construct: RSK2(Kin.Dom.1-N-terminal); purchased DiscoveRx KINOMEscan
T22 sequence (P51812 1-397 limits assumed): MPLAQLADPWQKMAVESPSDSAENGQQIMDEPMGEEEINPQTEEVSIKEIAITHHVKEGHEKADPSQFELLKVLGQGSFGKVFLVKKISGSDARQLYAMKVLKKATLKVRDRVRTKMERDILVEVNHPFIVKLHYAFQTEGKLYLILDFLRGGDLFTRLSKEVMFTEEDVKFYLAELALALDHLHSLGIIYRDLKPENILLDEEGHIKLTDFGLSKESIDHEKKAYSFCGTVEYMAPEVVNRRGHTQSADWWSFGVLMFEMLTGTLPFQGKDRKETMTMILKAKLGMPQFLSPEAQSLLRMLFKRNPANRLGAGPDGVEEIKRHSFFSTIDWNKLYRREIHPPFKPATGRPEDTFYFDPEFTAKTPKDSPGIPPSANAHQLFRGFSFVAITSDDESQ

CIT = target: T23, CIT (Homo sapiens, UniProt O14578); experiment: KinomeScan; assay type: binding; conditions: read-out: % control
T23 construct: purchased DiscoveRx KINOMEscan

HCK = target: T24, HCK (Homo sapiens, UniProt P08631); experiment: KinomeScan; assay type: binding; conditions: read-out: % control
T24 construct: purchased DiscoveRx KINOMEscan

DRAK1 = target: T25, DRAK1 (Homo sapiens, UniProt Q9UEE5); experiment: KinomeScan; assay type: binding; conditions: read-out: % control
T25 construct: purchased DiscoveRx KINOMEscan

[3] = target: T26, RSK3(Kin.Dom.1-N-terminal) (Homo sapiens, UniProt Q15349); experiment: KinomeScan; assay type: binding; conditions: read-out: % control
T26 construct: RSK3(Kin.Dom.1-N-terminal); purchased DiscoveRx KINOMEscan

PLK3 = target: T27, PLK3 (Homo sapiens, UniProt Q9H4B4); experiment: KinomeScan; assay type: binding; conditions: read-out: % control
T27 construct: purchased DiscoveRx KINOMEscan

EPHA1 = target: T28, EPHA1 (Homo sapiens, UniProt P21709); experiment: KinomeScan; assay type: binding; conditions: read-out: % control
T28 construct: purchased DiscoveRx KINOMEscan

PIK3CA(E542K) = target: T29, PIK3CA(E542K) (Homo sapiens, UniProt P42336, E542K); experiment: KinomeScan; assay type: binding; conditions: read-out: % control
T29 construct: purchased DiscoveRx KINOMEscan

BMX = target: T30, BMX (Homo sapiens, UniProt P51813); experiment: Invitrogen SelectScreen biochemical assay
T30 construct: purchased Invitrogen (SelectScreen service)
Source text: as §1
www.impactjournals.com/oncotarget/ Oncotarget, Supplementary Materials 2017
KinomeScan Profiling by invitrogen SelectScreen® assay
(1 picture or pasted object on this page, not shown here)

BUB1 = target: T31, BUB1 (Homo sapiens, UniProt O43683); experiment: KinomeScan; assay type: binding; conditions: read-out: % control
T31 construct: purchased DiscoveRx KINOMEscan

[4] = target: RPS6KA5(Kin.Dom.2-C-terminal) (Homo sapiens, UniProt O75582); experiment: KinomeScan; assay type: binding; conditions: read-out: % control
Chain of RPS6KA5(Kin.Dom.2-C-terminal) (O75582 388-802 limits assumed): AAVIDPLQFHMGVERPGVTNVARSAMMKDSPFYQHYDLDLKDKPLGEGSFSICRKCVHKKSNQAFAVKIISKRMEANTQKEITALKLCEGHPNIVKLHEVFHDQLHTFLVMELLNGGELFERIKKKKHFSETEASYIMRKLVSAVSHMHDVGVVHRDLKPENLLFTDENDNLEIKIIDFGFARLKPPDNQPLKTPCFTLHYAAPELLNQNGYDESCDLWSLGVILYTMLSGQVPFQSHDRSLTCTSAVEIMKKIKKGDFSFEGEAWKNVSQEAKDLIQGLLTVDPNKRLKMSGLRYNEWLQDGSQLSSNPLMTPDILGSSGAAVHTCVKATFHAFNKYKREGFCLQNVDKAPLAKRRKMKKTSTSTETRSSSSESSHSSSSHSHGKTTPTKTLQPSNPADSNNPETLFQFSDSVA

CDK9 = target: T32, CDK9 (Homo sapiens, UniProt P50750); experiment: KinomeScan; assay type: binding; conditions: read-out: % control
T32 construct: purchased DiscoveRx KINOMEscan

PDPK1 = target: T33, PDPK1 (Homo sapiens, UniProt O15530); experiment: KinomeScan; assay type: binding; conditions: read-out: % control
T33 construct: purchased DiscoveRx KINOMEscan

LATS2 = target: T34, LATS2 (Homo sapiens, UniProt Q9NRM7); experiment: KinomeScan; assay type: binding; conditions: read-out: % control
T34 construct: purchased DiscoveRx KINOMEscan

CLK1 = target: T35, CLK1 (Homo sapiens, UniProt P49759); experiment: KinomeScan; assay type: binding; conditions: read-out: % control
T35 construct: purchased DiscoveRx KINOMEscan

EPHA2 = target: T36, EPHA2 (Homo sapiens, UniProt P29317); experiment: KinomeScan; assay type: binding; conditions: read-out: % control
T36 construct: purchased DiscoveRx KINOMEscan

C=CC(=O)N1CCC[C@@H](n2nc(-c3ccc(OCc4cccc(C)n4)c(Cl)c3)c3c(N)ncnc32)C1 [CHMFL-EGFR-26]
remaining binding at 1 µM (RIPK1): 100%
remaining binding at 1 µM (p38-delta): 83%
S score (1) (468 kinases/mutants): 0.02
remaining binding at 1 µM (ERK5): 100%
remaining binding at 1 µM (GSK3A): 100%
remaining binding at 1 µM (SLK): 8.8%
remaining binding at 1 µM (PRKCE): 99%
remaining binding at 1 µM (LATS1): 82%
remaining binding at 1 µM [1]: 100%
% control (FLT3(ITD)): 87%
remaining binding at 1 µM (CDC2L5): 100%
remaining binding at 1 µM (ACVR2A): 89%
remaining binding at 1 µM (TXK): 15%
remaining binding at 1 µM (FLT3(D835Y)): 97%
remaining binding at 1 µM (CLK3): 100%
remaining binding at 1 µM (CAMK1): 100%
remaining binding at 1 µM (CSNK1G2): 100%
remaining binding at 1 µM (IKK-beta): 98%
remaining binding at 1 µM (NEK2): 18%
remaining binding at 1 µM (CDKL1): 100%
remaining binding at 1 µM (TNIK): 11%
remaining binding at 1 µM (RET(M918T)): 100%
remaining binding at 1 µM (DCAMKL2): 95%
remaining binding at 1 µM [2]: 95%
remaining binding at 1 µM (CIT): 90%
remaining binding at 1 µM (HCK): 44%
remaining binding at 1 µM (DRAK1): 100%
remaining binding at 1 µM [3]: 99%
remaining binding at 1 µM (PLK3): 85%
remaining binding at 1 µM (EPHA1): 42%
remaining binding at 1 µM (PIK3CA(E542K)): 93%
IC50 (BMX): 38.9 nM
remaining binding at 1 µM (BUB1): 76%
remaining binding at 1 µM [4]: 100%
remaining binding at 1 µM (CDK9): 90%
remaining binding at 1 µM (PDPK1): 97%
remaining binding at 1 µM (LATS2): 96%
remaining binding at 1 µM (CLK1): 94%
remaining binding at 1 µM (EPHA2): 100%

— publication PMC5392334, “Discovery and characterization of a novel irreversible EGFR mutants selective and potent kinase inhibitor CHMFL-EGFR-26 with a distinct binding mode” (Oncotarget, 2017)
